Results: ChEMBL document CHEMBL1909046, “DrugMatrix in vitro pharmacology data”

Key:
[1] = DRUGMATRIX: Calcium Channel Type L, Dihydropyridine radioligand binding (ligand: [3H] Nitrendipine); assay type: cell membranes, Rattus norvegicus, Wistar, Cerebral cortex, Membrane; conditions: Not Active = under 50% inhibition at 10 µM
Thromboxane-A synthase = molecular target: T1, Thromboxane-A synthase (Homo sapiens, UniProt P24557); test: biochemical; assay type: tissue-based, Platelet;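 also: enzyme inhibition assay with PGH2 supplied as substrate; in other assays of this panel Not Active means under 50% inhibition at 10 µM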
T1 sequence (P24557 whole entry): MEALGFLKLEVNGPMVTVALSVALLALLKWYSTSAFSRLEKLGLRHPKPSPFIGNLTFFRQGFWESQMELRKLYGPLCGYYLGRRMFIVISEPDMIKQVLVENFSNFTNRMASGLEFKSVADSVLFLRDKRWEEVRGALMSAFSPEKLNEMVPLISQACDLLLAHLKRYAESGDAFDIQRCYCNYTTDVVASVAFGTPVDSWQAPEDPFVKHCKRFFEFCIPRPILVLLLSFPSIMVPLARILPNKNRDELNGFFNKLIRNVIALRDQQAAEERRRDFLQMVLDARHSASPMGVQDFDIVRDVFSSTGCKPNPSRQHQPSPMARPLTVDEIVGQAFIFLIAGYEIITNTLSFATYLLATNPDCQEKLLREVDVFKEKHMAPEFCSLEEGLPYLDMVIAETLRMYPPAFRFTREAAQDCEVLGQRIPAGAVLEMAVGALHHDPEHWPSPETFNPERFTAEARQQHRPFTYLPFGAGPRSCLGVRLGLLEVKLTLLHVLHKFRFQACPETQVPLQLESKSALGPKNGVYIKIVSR

Substance-K receptor = molecular target: T2, Substance-K receptor (Homo sapiens, UniProt P21452); assay type: cell membranes, CHO, Membrane; also: in other assays of this panel Not Active means under 50% inhibition at 10 µM
T2 sequence (P21452 whole entry): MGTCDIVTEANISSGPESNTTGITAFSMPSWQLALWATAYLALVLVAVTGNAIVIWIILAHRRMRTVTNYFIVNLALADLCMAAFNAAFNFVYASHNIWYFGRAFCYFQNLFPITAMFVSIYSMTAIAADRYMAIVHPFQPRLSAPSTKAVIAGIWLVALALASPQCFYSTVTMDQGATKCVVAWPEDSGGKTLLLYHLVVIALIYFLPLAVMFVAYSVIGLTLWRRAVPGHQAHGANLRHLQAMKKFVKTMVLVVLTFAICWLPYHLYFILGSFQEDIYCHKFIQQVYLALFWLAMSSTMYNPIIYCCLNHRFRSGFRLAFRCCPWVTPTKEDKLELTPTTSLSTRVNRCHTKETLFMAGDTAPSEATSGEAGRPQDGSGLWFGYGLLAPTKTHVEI

Nitric oxide synthase 1 = Nitric oxide synthase 1 (Rattus norvegicus, UniProt P29476); assay type: tissue-based, Cerebellum; also: in other assays of this panel Not Active means under 50% inhibition at 10 µM
Nitric oxide synthase 1, sequence (P29476 whole entry): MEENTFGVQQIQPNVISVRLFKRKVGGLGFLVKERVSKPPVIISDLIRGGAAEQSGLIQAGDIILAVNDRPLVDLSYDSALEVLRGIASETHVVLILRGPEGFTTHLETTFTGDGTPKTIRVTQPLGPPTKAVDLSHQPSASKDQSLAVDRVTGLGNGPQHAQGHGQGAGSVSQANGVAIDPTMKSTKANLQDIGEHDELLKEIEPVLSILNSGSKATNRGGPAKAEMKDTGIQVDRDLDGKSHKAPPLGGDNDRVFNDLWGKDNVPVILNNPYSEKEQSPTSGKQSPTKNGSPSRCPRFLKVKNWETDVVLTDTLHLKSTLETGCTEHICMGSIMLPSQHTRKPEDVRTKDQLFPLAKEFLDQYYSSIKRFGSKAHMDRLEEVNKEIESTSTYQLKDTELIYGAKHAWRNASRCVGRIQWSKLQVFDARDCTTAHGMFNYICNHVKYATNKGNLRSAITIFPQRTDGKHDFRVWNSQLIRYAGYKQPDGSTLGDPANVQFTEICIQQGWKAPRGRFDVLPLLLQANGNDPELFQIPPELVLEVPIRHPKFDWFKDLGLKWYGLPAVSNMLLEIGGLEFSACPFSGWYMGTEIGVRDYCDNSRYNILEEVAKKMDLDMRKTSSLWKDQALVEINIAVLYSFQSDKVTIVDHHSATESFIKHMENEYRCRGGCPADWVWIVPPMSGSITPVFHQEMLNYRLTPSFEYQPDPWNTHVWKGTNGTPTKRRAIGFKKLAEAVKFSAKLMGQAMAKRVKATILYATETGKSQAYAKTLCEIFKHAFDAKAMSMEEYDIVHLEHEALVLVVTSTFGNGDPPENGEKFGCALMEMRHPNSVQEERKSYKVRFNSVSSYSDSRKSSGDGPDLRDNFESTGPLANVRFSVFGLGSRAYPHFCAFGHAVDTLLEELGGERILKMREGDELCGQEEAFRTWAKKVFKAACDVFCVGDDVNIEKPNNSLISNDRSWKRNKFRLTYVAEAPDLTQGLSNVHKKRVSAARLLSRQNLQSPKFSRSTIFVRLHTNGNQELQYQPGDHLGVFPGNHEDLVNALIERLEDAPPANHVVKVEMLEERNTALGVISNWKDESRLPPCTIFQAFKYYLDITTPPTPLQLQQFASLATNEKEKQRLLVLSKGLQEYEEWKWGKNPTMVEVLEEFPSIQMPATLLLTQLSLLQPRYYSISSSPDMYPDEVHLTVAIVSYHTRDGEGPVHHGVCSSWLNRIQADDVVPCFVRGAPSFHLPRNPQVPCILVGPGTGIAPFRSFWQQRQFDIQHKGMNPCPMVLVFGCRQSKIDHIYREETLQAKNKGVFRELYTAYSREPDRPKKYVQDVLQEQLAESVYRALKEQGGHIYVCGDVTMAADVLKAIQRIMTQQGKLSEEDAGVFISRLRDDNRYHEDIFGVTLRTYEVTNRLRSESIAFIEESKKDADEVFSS

[2] = DRUGMATRIX: beta-Lactamase enzyme inhibition (substrate: Nitrocefin); parameters: species or system Bacillus cereus; conditions: Not Active = under 50% inhibition at 10 µM
Neutrophil elastase = molecular target: T3, Neutrophil elastase (Homo sapiens, UniProt P08246); assay type: tissue-based;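 also: inhibition of neutrophil elastase enzyme activity, measured with a p-nitroanilide-linked peptide substrate; in other assays of this panel Not Active means under 50% inhibition at 10 µM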
T3 sequence (P08246 whole entry): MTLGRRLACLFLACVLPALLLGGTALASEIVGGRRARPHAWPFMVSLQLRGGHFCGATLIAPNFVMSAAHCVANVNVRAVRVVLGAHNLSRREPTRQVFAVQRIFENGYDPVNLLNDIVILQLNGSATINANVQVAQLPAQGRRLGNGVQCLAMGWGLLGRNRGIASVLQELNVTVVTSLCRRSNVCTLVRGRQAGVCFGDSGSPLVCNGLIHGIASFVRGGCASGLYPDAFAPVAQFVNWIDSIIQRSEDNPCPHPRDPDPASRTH

Interstitial collagenase = molecular target: T4, Interstitial collagenase (Homo sapiens, UniProt P03956); test: biochemical; assay type: tissue-based, Rheumatoid synovial fibroblasts
T4 sequence (P03956 whole entry): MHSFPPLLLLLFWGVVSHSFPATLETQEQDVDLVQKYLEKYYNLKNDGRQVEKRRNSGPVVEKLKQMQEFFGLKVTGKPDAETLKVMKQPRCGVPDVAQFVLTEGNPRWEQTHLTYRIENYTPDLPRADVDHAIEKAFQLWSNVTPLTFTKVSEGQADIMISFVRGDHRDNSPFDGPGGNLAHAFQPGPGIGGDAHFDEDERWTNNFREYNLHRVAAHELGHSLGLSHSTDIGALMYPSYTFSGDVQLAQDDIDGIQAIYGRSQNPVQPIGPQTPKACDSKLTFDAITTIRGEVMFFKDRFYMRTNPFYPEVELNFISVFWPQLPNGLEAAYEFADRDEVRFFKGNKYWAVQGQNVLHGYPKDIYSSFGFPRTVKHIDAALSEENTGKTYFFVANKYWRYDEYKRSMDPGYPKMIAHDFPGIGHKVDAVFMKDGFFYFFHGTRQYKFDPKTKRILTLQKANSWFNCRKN

In the case of `C#C[C@]1(O)CC[C@H]2[C@@H]3[C@H](C)CC4=C(CCC(=O)C4)[C@H]3CC[C@@]21C` [TIBOLONE], the IC50 [1] is reported as “Not Active”, the Ki [1] is reported as “Not Active” and the IC50 (Thromboxane-A synthase; platelet) is reported as “Not Active”. The IC50 (Substance-K receptor; cho) was “Not Active”, the IC50 (Nitric oxide synthase 1) was “Not Active” and the IC50 [2] was “Not Active”. For the same compound, the Ki [2] was “Not Active”, the IC50 (Neutrophil elastase) was “Not Active” and the IC50 (Interstitial collagenase) was “Not Active”.
With `CN1C(=O)OC(C)(C)C1=O` [TRIMETHADIONE] the IC50 [1] was “Not Active”, the Ki [1] was “Not Active” and the IC50 (Thromboxane-A synthase; platelet) was “Not Active”. For the same compound, the IC50 (Substance-K receptor; cho) was “Not Active”, the IC50 (Nitric oxide synthase 1) was “Not Active” and the IC50 [2] was “Not Active”. The Ki [2] was “Not Active”, the IC50 (Neutrophil elastase) was “Not Active” and the IC50 (Interstitial collagenase) was “Not Active”.
In the case of `OC[C@@H](O)[C@@H](O)[C@H](O)[C@H](O)CO` [MANNITOL], the IC50 [1] is reported as “Not Active”, the Ki [1] is reported as “Not Active” and the IC50 (Thromboxane-A synthase; platelet) is reported as “Not Active”. The IC50 (Substance-K receptor; cho) was “Not Active”, the IC50 (Nitric oxide synthase 1) was “Not Active” and the IC50 [2] was “Not Active”. For the same compound, the Ki [2] was “Not Active”, the IC50 (Neutrophil elastase) was “Not Active” and the IC50 (Interstitial collagenase) was “Not Active”.
With `CCN(CC)C(=S)SSC(=S)N(CC)CC` the IC50 [1] was “Not Active”, the Ki [1] was “Not Active” and the IC50 (Thromboxane-A synthase; platelet) was “Not Active”. The IC50 (Substance-K receptor; cho) was “Not Active”, the IC50 (Nitric oxide synthase 1) was “Not Active” and the IC50 [2] was “Not Active”. For the same compound, the Ki [2] was “Not Active”, the IC50 (Neutrophil elastase) was “Not Active” and the IC50 (Interstitial collagenase) was “Not Active”.
For `O=C(O)c1cc(/N=N/c2ccc(S(=O)(=O)Nc3ccccn3)cc2)ccc1O` [SULFASALAZINE], the IC50 [1] was “Not Active”, the Ki [1] was “Not Active” and the IC50 (Thromboxane-A synthase; read-out: IC50) was 19.6 µM. For the same compound, the IC50 (Substance-K receptor; cho) was “Not Active”, the IC50 (Nitric oxide synthase 1) was “Not Active” and the IC50 [2] was “Not Active”. The Ki [2] was “Not Active”, the IC50 (Neutrophil elastase) was “Not Active” and the IC50 (Interstitial collagenase; read-out: IC50) was 23.5 µM.
With `O=C(c1ccccc1)c1ccc2n1CCC2C(=O)O` (stereo not given) [KETOROLAC] the IC50 [1] was “Not Active”, the Ki [1] was “Not Active” and the IC50 (Thromboxane-A synthase; platelet) was “Not Active”. The IC50 (Substance-K receptor; cho) was “Not Active”, the IC50 (Nitric oxide synthase 1) was “Not Active” and the IC50 [2] was “Not Active”. For the same compound, the Ki [2] was “Not Active”, the IC50 (Neutrophil elastase) was “Not Active” and the IC50 (Interstitial collagenase) was “Not Active”.
For `CC[C@H](C)[C@@H](CO[C@@H](Cc1ccccc1)C(=O)N[C@@H](CCS(C)(=O)=O)C(=O)OC(C)C)NC[C@@H](N)CS`, the IC50 ([1]; read-out: IC50) was 4.5 µM, the Ki ([1]; read-out: Ki) was 2.89 µM and the IC50 (Thromboxane-A synthase; platelet) was “Not Active”. The IC50 (Substance-K receptor; read-out: IC50) was 1.61 µM, the Ki (Substance-K receptor; read-out: Ki) was 0.536 µM and the IC50 (Nitric oxide synthase 1) was “Not Active”. The IC50 [2] was “Not Active”, the Ki [2] was “Not Active” and the IC50 (Neutrophil elastase) was “Not Active”. The IC50 (Interstitial collagenase) was “Not Active”.
In the case of `CC(C)(C)NC[C@H](O)COc1cccc2c1CCCC2=O` [LEVOBUNOLOL], the IC50 [1] is reported as “Not Active”, the Ki [1] is reported as “Not Active” and the IC50 (Thromboxane-A synthase; platelet) is reported as “Not Active”. The IC50 (Substance-K receptor; cho) was “Not Active”, the IC50 (Nitric oxide synthase 1) was “Not Active” and the IC50 [2] was “Not Active”. For the same compound, the Ki [2] was “Not Active”, the IC50 (Neutrophil elastase) was “Not Active” and the IC50 (Interstitial collagenase) was “Not Active”.
With `C[N+]1(C)[C@@H]2C[C@@H](OC(=O)[C@H](CO)c3ccccc3)C[C@H]1[C@@H]1O[C@@H]12.[Br-]` [METHSCOPOLAMINE BROMIDE] the IC50 [1] was “Not Active”, the Ki [1] was “Not Active” and the IC50 (Thromboxane-A synthase; platelet) was “Not Active”. For the same compound, the IC50 (Substance-K receptor; cho) was “Not Active”, the IC50 (Nitric oxide synthase 1) was “Not Active” and the IC50 [2] was “Not Active”. The Ki [2] was “Not Active”, the IC50 (Neutrophil elastase) was “Not Active” and the IC50 (Interstitial collagenase) was “Not Active”.
In the case of `CO[C@@H]1[C@@H](OC)[C@H](C)[C@@](O)(CC(=O)O)O[C@H]1[C@H](C)[C@H]1O[C@@]2(CC[C@@](C)([C@H]3CC[C@@](C)([C@@H]4O[C@@H]([C@H]5O[C@](C)(O)[C@H](C)C[C@@H]5C)C[C@@H]4O[C@@H]4C[C@H](OC)[C@@H](OC)[C@H](C)O4)O3)O2)C[C@H](O)[C@H]1C.N` [MADURAMICIN], the IC50 [1] is reported as “Not Active”, the Ki [1] is reported as “Not Active” and the IC50 (Thromboxane-A synthase; platelet) is reported as “Not Active”. The IC50 (Substance-K receptor; cho) was “Not Active”, the IC50 (Nitric oxide synthase 1) was “Not Active” and the IC50 [2] was “Not Active”. For the same compound, the Ki [2] was “Not Active”, the IC50 (Neutrophil elastase) was “Not Active” and the IC50 (Interstitial collagenase) was “Not Active”.
In the case of `Cc1nnc(NS(=O)(=O)c2ccc(N)cc2)s1` [SULFAMETHIZOLE], the IC50 [1] is reported as “Not Active”, the Ki [1] is reported as “Not Active” and the IC50 (Thromboxane-A synthase; platelet) is reported as “Not Active”. For the same compound, the IC50 (Substance-K receptor; cho) was “Not Active”, the IC50 (Nitric oxide synthase 1) was “Not Active” and the IC50 [2] was “Not Active”. For the same compound, the Ki [2] was “Not Active”, the IC50 (Neutrophil elastase) was “Not Active” and the IC50 (Interstitial collagenase) was “Not Active”.
